According to patent US5869447A, “Cyclohexapeptides and their mixtures, a process for preparing them, and their use” (Hoechst Aktiengesellschaft, priority 1994, dated 1999):
In brackets after ≈: the same amount, converted by molar mass. Square brackets hold non-standard residues; d marks the D form. Peptide text beside a SMILES is read from it. Hyp = O=C(O)[C@@H]1C[C@@H](O)CN1

Test system: IL-4 receptor (receptor/Fc fusion protein)
Test: Specific inhibition of IL-4 binding in cell-free binding assays (IC50 table)
Settings: cell-free IL-4 binding assay, biotinylated ligand 100 ng/ml, PBSA with 5% DMSO; table does not say whether huIL-4 or muIL-4 test
Text: Specific inhibition of IL-4 Binding in Cell-free Binding Assays.
EP 488 170 A1, which is incorporated herein by reference, discloses cell-free binding tests. For carrying them out, recombinant chimeric proteins were used which comprise the extracellular region of what are normally membrane-located receptors on to whose carboxyl terminus has been fused the Fc region of a heavy immunoglobulin chain composed of hinge, CH2 and CH3 domains. These so-called receptor/Fc fusion proteins can be bound, while retaining the specific receptor binding activity, to solid phases which have previously been coated, for example, with monoclonal antibodies directed against the Fc moiety. For this example, Nunc® type B ELISA plates were used as the solid phase. Receptor/Fc fusion proteins, dissolved in PBS containing 10 mg/ml BSA (PBSA), were bonded to these pre-treated plates (huIL-4R/Fc: 500 ng/ml; muIL-4R/Fc: 250 ng/ml; huIL-lR/Fc: 125 ng/ml; at room temperature for 1 h). […] The plates were incubated at room temperature for 1 h in PBSA containing 5% DMSO. After having been washed, the plates were incubated at room temperature for 20 min with streptavidin/peroxidase (Amersham, 1:2000 in PBSA). The bound peroxidase was detected after the plates had been washed repeatedly in a solution of tetramethylbenzidine substrate (Behringwerke). The extinction at 450 nm, which directly reflects the quantity of the biotinylated ligand bound to the receptor, was measured after the plates had been incubated for 30 min. For FIGS. 1-3, the measured extinction signal was plotted against the concentration of the competing agent with the 100% value being the extinction which was measured in the absence of any competing agent.

IC50	Compound
8.3 µg/mL (≈ 12.4 µM)	CC(C)[C@@H]1NC(=O)[C@H](Cc2ccc(O)cc2)NC(=O)[C@@H](C)NC(=O)[C@H](C(C)C)NC(=O)[C@H](Cc2ccc(O)cc2)NC(=O)[C@H](C)NC1=O [cyclo(Tyr--Val--Ala--Tyr--Val--(D)--Ala), cyclo(Tyr-Val-Ala-Tyr-Val-(D)-Ala)] (cyclo(AYV[dA]YV))
96.6 µg/mL (≈ 128 µM)	CC(C)[C@@H]1NC(=O)[C@H](Cc2ccc(O)cc2)NC(=O)[C@@H](C)NC(=O)[C@H](C(C)C)NC(=O)[C@H](Cc2ccc(O)cc2)NC(=O)[C@H](CCCNC(=N)N)NC1=O [cyclo(Tyr--Val--Arg--Tyr--Val--(D)--Ala), cyclo(Tyr-Val-Arg-Tyr-Val-(D)-Ala)] (cyclo(RYV[dA]YV))
17.4 µg/mL (≈ 24.5 µM)	CC(C)[C@@H]1NC(=O)[C@H](Cc2ccc(O)cc2)NC(=O)[C@@H]2C[C@@H](O)CN2C(=O)[C@H](C(C)C)NC(=O)[C@H](Cc2ccc(O)cc2)NC(=O)[C@@H](C)NC1=O [cyclo(Tyr--Val--Hyp--Tyr--Val--(D)--Ala), cyclo(Tyr-Val-Hyp-Tyr-Val-(D)-Ala)] (cyclo([Hyp]YV[dA]YV))
62.5 µg/mL (≈ 88.2 µM)	CC[C@H](C)[C@@H]1NC(=O)[C@H](C(C)C)NC(=O)[C@H](Cc2ccc(O)cc2)NC(=O)[C@@H](C)NC(=O)[C@H](C(C)C)NC(=O)[C@H](Cc2ccc(O)cc2)NC1=O [cyclo(Tyr--Val--Ile--Tyr--Val--(D)--Ala), cyclo(Tyr-Val-Ile-Tyr-Val-(D)-Ala)] (cyclo(IYV[dA]YV))
41.3 µg/mL (≈ 58.3 µM)	CC(C)C[C@@H]1NC(=O)[C@H](C(C)C)NC(=O)[C@H](Cc2ccc(O)cc2)NC(=O)[C@@H](C)NC(=O)[C@H](C(C)C)NC(=O)[C@H](Cc2ccc(O)cc2)NC1=O [cyclo(Tyr--Val--Leu--Tyr--Val--(D)--Ala), cyclo(Tyr-Val-Leu-Tyr-Val-(D)-Ala)] (cyclo(LYV[dA]YV))
92.0 µg/mL (≈ 132 µM)	CC(C)[C@@H]1NC(=O)[C@H](Cc2ccc(O)cc2)NC(=O)[C@@H](C)NC(=O)[C@H](C(C)C)NC(=O)[C@H](Cc2ccc(O)cc2)NC(=O)[C@H]([C@@H](C)O)NC1=O [cyclo(Tyr--Val--Thr--Tyr--Val--(D)--Ala), cyclo(Tyr-Val-Thr-Tyr-Val-(D)-Ala)] (cyclo(TYV[dA]YV))
16.7 µg/mL (≈ 25 µM)	CC(C)[C@@H]1NC(=O)[C@H](C)NC(=O)[C@H](Cc2ccc(O)cc2)NC(=O)[C@H](C(C)C)NC(=O)[C@@H](C)NC(=O)[C@H](Cc2ccc(O)cc2)NC1=O [cyclo(Val--Tyr--Ala--Val--Tyr--(D)--Ala), cyclo(Val-Tyr-Ala-Val-Tyr-(D)-Ala)] (cyclo(AVY[dA]VY))
